# Laboratory results from ChEMBL document CHEMBL1201862, “PubChem BioAssay data set” (2004).
#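 Protocol summary: plate cells (96-well), add compound at 5 concentrations, incubate 48 h, interpolate endpoints linearly. At the GI50, growth is halved.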 The source made the active and inactive calls. No stated cut-off is given here; in the data, active = GI50 up to about 1.1 µM and inactive = higher.
# Columns and labels:
# Assay in all cases: inhibition of tumour cell growth, NCI panel, 48 h
# 786-0 = tested on: 786-0
# A498 = tested on: A498
# A549 = tested on: A549
# ACHN = tested on: ACHN
# BT-549 = tested on: BT-549
# CAKI-1 = tested on: CAKI-1
# CCRF-CEM = tested on: CCRF-CEM
# COLO 205 = tested on: COLO 205
# DU-145 = tested on: DU-145
# HCC 2998 = tested on: HCC 2998
# HCT-116 = tested on: HCT-116
# HCT-15 = tested on: HCT-15
# HL-60 = tested on: HL-60
# HT-29 = tested on: HT-29
# Hs-578T = tested on: Hs-578T
# IGROV-1 = tested on: IGROV-1
# K562 = tested on: K562
# KM12 = tested on: KM12
# LOX IMVI = tested on: LOX IMVI
# M14 = tested on: M14
# MCF7 = tested on: MCF7
# MDA-MB-231 = tested on: MDA-MB-231
# MDA-MB-435 = tested on: MDA-MB-435
# MDA-N = tested on: MDA-N
# MOLT-4 = tested on: MOLT-4
# Malme-3M = tested on: Malme-3M
# NCI-H226 = tested on: NCI-H226
# NCI-H23 = tested on: NCI-H23
# NCI-H460 = tested on: NCI-H460
# NCI-H522 = tested on: NCI-H522
# NCI/ADR-RES = tested on: NCI/ADR-RES
# OVCAR-3 = tested on: OVCAR-3
# OVCAR-4 = tested on: OVCAR-4
# OVCAR-5 = tested on: OVCAR-5
# OVCAR-8 = tested on: OVCAR-8
# PC-3 = tested on: PC-3
# RPMI-8226 = tested on: RPMI-8226
# RXF 393 = tested on: RXF 393
# SF-268 = tested on: SF-268
# SF-295 = tested on: SF-295
# SF-539 = tested on: SF-539
# SK-MEL-28 = tested on: SK-MEL-28
# SK-MEL-2 = tested on: SK-MEL-2
# SK-MEL-5 = tested on: SK-MEL-5
# SK-OV-3 = tested on: SK-OV-3
# SN12C = tested on: SN12C
# SNB-19 = tested on: SNB-19
# SR = tested on: SR
# SW-620 = tested on: SW-620
# T47D = tested on: T47D
# TK-10 = tested on: TK-10
# U-251 = tested on: U-251
# UACC-257 = tested on: UACC-257
# UACC-62 = tested on: UACC-62
# UO-31 = tested on: UO-31
# EKVX = tested on: EKVX
# HOP-62 = tested on: HOP-62
# SNB-75 = tested on: SNB-75
smiles,measurement,setting,value
Cc1c(F)c(N)c2c(=O)cc(-c3ccc(NC(=O)CN(C)C)c(F)c3)oc2c1F,GI50,786-0,39.5 µM (inactive)
same,GI50,A498,10 µM (inactive)
same,GI50,A549,89.7 µM (inactive)
same,GI50,ACHN,> 100 µM (inactive)
same,GI50,BT-549,> 100 µM (inactive)
same,GI50,CAKI-1,2.45 µM (inactive)
same,GI50,CCRF-CEM,21 µM (inactive)
same,GI50,COLO 205,36.6 µM (inactive)
same,GI50,DU-145,82.8 µM (inactive)
same,GI50,HCC 2998,21.5 µM (inactive)
same,GI50,HCT-116,> 100 µM (inactive)
same,GI50,HCT-15,61.8 µM
same,GI50,HL-60,18.4 µM (inactive)
same,GI50,HT-29,33.6 µM (inactive)
same,GI50,Hs-578T,> 100 µM (inactive)
same,GI50,IGROV-1,38 µM (inactive)
same,GI50,K562,26.7 µM (inactive)
same,GI50,KM12,32 µM (inactive)
same,GI50,LOX IMVI,33 µM (inactive)
same,GI50,M14,> 100 µM (inactive)
same,GI50,MCF7,7.29 µM (inactive)
same,GI50,MDA-MB-231,27.8 µM (inactive)
same,GI50,MDA-MB-435,48.2 µM (inactive)
same,GI50,MDA-N,> 100 µM (inactive)
same,GI50,MOLT-4,15.5 µM (inactive)
same,GI50,Malme-3M,> 100 µM (inactive)
same,GI50,NCI-H226,11 µM (inactive)
same,GI50,NCI-H23,> 100 µM (inactive)
same,GI50,NCI-H460,24.2 µM (inactive)
same,GI50,NCI-H522,55.1 µM (inactive)
same,GI50,NCI/ADR-RES,68.7 µM (inactive)
same,GI50,OVCAR-3,0.0456 µM (active)
same,GI50,OVCAR-4,23.6 µM (inactive)
same,GI50,OVCAR-5,57 µM (inactive)
same,GI50,OVCAR-8,38.5 µM (inactive)
same,GI50,PC-3,38.3 µM (inactive)
same,GI50,RPMI-8226,23.7 µM (inactive)
same,GI50,RXF 393,> 100 µM (inactive)
same,GI50,SF-268,28.4 µM (inactive)
same,GI50,SF-295,68.1 µM (inactive)
same,GI50,SF-539,> 100 µM (inactive)
same,GI50,SK-MEL-28,47.9 µM (inactive)
same,GI50,SK-MEL-2,60.7 µM (inactive)
same,GI50,SK-MEL-5,53.5 µM (inactive)
same,GI50,SK-OV-3,> 100 µM (inactive)
same,GI50,SN12C,> 100 µM (inactive)
same,GI50,SNB-19,54.1 µM (inactive)
same,GI50,SR,17.6 µM (inactive)
same,GI50,SW-620,18.3 µM (inactive)
same,GI50,T47D,> 100 µM (inactive)
same,GI50,TK-10,18.5 µM (inactive)
same,GI50,U-251,24.8 µM (inactive)
same,GI50,UACC-257,> 100 µM (inactive)
same,GI50,UACC-62,26.4 µM (inactive)
same,GI50,UO-31,86.1 µM (inactive)
O=C(Nc1ccc2nc(O)n[n+]([O-])c2c1)C(F)(F)F,GI50,786-0,> 100 µM (inactive)
same,GI50,A498,> 100 µM (inactive)
same,GI50,A549,> 100 µM (inactive)
same,GI50,ACHN,> 100 µM (inactive)
same,GI50,BT-549,> 100 µM (inactive)
same,GI50,CAKI-1,> 100 µM (inactive)
same,GI50,CCRF-CEM,> 100 µM (inactive)
same,GI50,COLO 205,> 100 µM (inactive)
same,GI50,DU-145,> 100 µM (inactive)
same,GI50,EKVX,> 100 µM (inactive)
same,GI50,HCT-116,> 100 µM (inactive)
same,GI50,HCT-15,> 100 µM
same,GI50,HL-60,> 100 µM (inactive)
same,GI50,HOP-62,> 100 µM (inactive)
same,GI50,HT-29,> 100 µM (inactive)
same,GI50,Hs-578T,> 100 µM (inactive)
same,GI50,IGROV-1,> 100 µM (inactive)
same,GI50,K562,> 100 µM (inactive)
same,GI50,KM12,> 100 µM (inactive)
same,GI50,LOX IMVI,> 100 µM (inactive)
same,GI50,M14,> 100 µM (inactive)
same,GI50,MCF7,> 100 µM (inactive)
same,GI50,MDA-MB-231,> 100 µM (inactive)
same,GI50,MDA-MB-435,> 100 µM (inactive)
same,GI50,MDA-N,> 100 µM (inactive)
same,GI50,MOLT-4,> 100 µM (inactive)
same,GI50,NCI-H226,> 100 µM (inactive)
same,GI50,NCI-H23,> 100 µM (inactive)
same,GI50,NCI-H460,> 100 µM (inactive)
same,GI50,NCI-H522,> 100 µM (inactive)
same,GI50,NCI/ADR-RES,> 100 µM (inactive)
same,GI50,OVCAR-3,> 100 µM (inactive)
same,GI50,OVCAR-4,> 100 µM (inactive)
same,GI50,OVCAR-5,> 100 µM (inactive)
same,GI50,OVCAR-8,> 100 µM (inactive)
same,GI50,PC-3,> 100 µM (inactive)
same,GI50,RPMI-8226,> 100 µM (inactive)
same,GI50,SF-268,> 100 µM (inactive)
same,GI50,SF-295,> 100 µM (inactive)
same,GI50,SF-539,> 100 µM (inactive)
same,GI50,SK-MEL-28,> 100 µM (inactive)
same,GI50,SK-MEL-2,> 100 µM (inactive)
same,GI50,SK-MEL-5,> 100 µM (inactive)
same,GI50,SK-OV-3,> 100 µM (inactive)
same,GI50,SN12C,> 100 µM (inactive)
same,GI50,SNB-19,> 100 µM (inactive)
same,GI50,SNB-75,> 100 µM (inactive)
same,GI50,SR,> 100 µM (inactive)
same,GI50,SW-620,> 100 µM (inactive)
same,GI50,T47D,> 100 µM (inactive)
same,GI50,TK-10,> 100 µM (inactive)
same,GI50,U-251,> 100 µM (inactive)
same,GI50,UACC-257,> 100 µM (inactive)
same,GI50,UACC-62,> 100 µM (inactive)
same,GI50,UO-31,> 100 µM (inactive)
